Several values for one entry are separate records, joined by “and”; a condition that tells them apart may be missing. Equal values may be shown once. Inconclusive results and toxic doses are left out.

For the assay, the system named is BDF1 mice, B16 melanoma ip, median survival T/C. The assay is described as follows: NCI In Vivo Anticancer Drug Screen. Data for tumor model B16 Melanoma (intraperitoneal) in B6D2F1 (BDF1) mice. Conditions: endpoint: median survival time, higher = longer survival. In a few lines: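 Each result divides a survival or tumor-size measurement in the compound-treated group by the same measurement in the vehicle group.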

[1] abbreviates: dose: 12.5 mg/kg/injection, schedule: Q04DX003 (ip), vehicle: saline.
[2] abbreviates: dose: 25.0 mg/kg/injection, schedule: Q04DX003 (ip), vehicle: saline.
Setting [3] is: dose: 25.0 mg/kg/injection, schedule: Q01DX009 (ip), vehicle: Klucel (hydroxypropylcellulose) (HPC).
Where [4] appears, read: dose: 50.0 mg/kg/injection, schedule: Q01DX009 (ip), vehicle: Klucel (hydroxypropylcellulose) (HPC).

As for `CC[C@H]1CN2CCc3cc(OC)c(OC)cc3[C@@H]2C[C@@H]1C[C@H]1NCCc2cc(O)c(OC)cc21`, the T/C was 118 % of control (dose: 2.0 mg/kg/injection, schedule: Q01DX009 (ip), vehicle: saline + alcohol); 108 % of control and 120 % of control (dose: 2.0 mg/kg/injection, schedule: Q01DX009 (ip), vehicle: saline); 113 % of control (dose: 8.0 mg/kg/injection, schedule: Q01DX009 (ip), vehicle: saline + alcohol); 117 % of control (dose: 8.0 mg/kg/injection, schedule: Q04DX003 (ip), vehicle: alkali diluted with saline); 108 % of control (dose: 16.0 mg/kg/injection, schedule: Q04DX003 (ip), vehicle: alkali diluted with saline); 122 % of control (dose: 32.0 mg/kg/injection, schedule: Q04DX003 (ip), vehicle: alkali diluted with saline).
Turning to `CC(C)NC(=O)OCc1c(COC(=O)NC(C)C)c(-c2ccc(Cl)c(Cl)c2)n2c1CCC2`, the T/C runs as follows: (dose: 1.56 mg/kg/injection, schedule: Q01DX009 (ip), vehicle: distilled water + Tween-80) 102 % of control; (dose: 2.34 mg/kg/injection, schedule: Q01DX009 (ip), vehicle: other) 123 % of control; (dose: 3.11 mg/kg/injection, schedule: Q01DX009 (ip), vehicle: distilled water + Tween-80) 118 % of control; (dose: 3.12 mg/kg/injection, schedule: Q01DX009 (ip), vehicle: distilled water + Tween-80) 120 % of control; (dose: 4.69 mg/kg/injection, schedule: Q01DX009 (ip), vehicle: saline with Tween-80) 183 % of control; (dose: 9.38 mg/kg/injection, schedule: Q01DX009 (ip), vehicle: other) 169 % of control. For the same molecule, the T/C is, setting by setting: (dose: 9.38 mg/kg/injection, schedule: Q01DX009 (ip), vehicle: saline with Tween-80) 173 % of control; (dose: 12.5 mg/kg/injection, schedule: Q01DX009 (ip), vehicle: distilled water + Tween-80) 168 % of control; (dose: 14.4 mg/kg/injection, schedule: Q01DX009 (ip), vehicle: distilled water + Tween-80) 179 % of control; (dose: 18.75 mg/kg/injection, schedule: Q01DX009 (ip), vehicle: other) 197 % of control; (dose: 18.75 mg/kg/injection, schedule: Q01DX009 (ip), vehicle: saline with Tween-80) 239 % of control; (dose: 25.0 mg/kg/injection, schedule: Q01DX009 (ip), vehicle: distilled water + Tween-80) 200 % of control. Further, the T/C (dose: 37.5 mg/kg/injection, schedule: Q01DX009 (ip), vehicle: saline with Tween-80) is 245 % of control; the T/C (dose: 40.0 mg/kg/injection, schedule: Q01DX009 (ip), vehicle: distilled water + Tween-80) was 103 % of control; the T/C (dose: 50.0 mg/kg/injection, schedule: Q01DX009 (ip), vehicle: distilled water + Tween-80) is 100 % of control; the T/C (dose: 75.0 mg/kg/injection, schedule: Q01DX009 (ip), vehicle: saline with Tween-80) was 215 % of control.
As for `C=CCOCC(O)CN(C)C1CCCCC1` (stereo not given), the T/C runs as follows: under setting [1], 121 % of control; under setting [2], 100 % of control; (dose: 50.0 mg/kg/injection, schedule: Q04DX003 (ip), vehicle: saline) 100 % of control and 104 % of control.
`COC(C(=O)C(O)C(C)O)C1CC2C=C3C=C(OC4CC(OC5CC(O)C(OC)C(C)O5)C(OC(C)=O)C(C)O4)C(C)C(=O)C3=C(O)C2=C(O)C1OC1CC(OC2CC(OC3CC(C)(O)C(O)C(C)O3)C(O)C(C)O2)C(O)C(C)O1` (stereo not given): the T/C is 108 % of control (dose: 0.25 mg/kg/injection, schedule: Q01DX009 (ip), vehicle: saline with Tween-80); 112 % of control (dose: 0.5 mg/kg/injection, schedule: Q01DX009 (ip), vehicle: saline with Tween-80); 110 % of control and 116 % of control (dose: 1.0 mg/kg/injection, schedule: Q01DX009 (ip), vehicle: saline with Tween-80); 157 % of control (dose: 2.6 mg/kg/injection, schedule: Q01DX009 (ip), vehicle: saline with Tween-80); 154 % of control and 167 % of control (dose: 4.0 mg/kg/injection, schedule: Q01DX009 (ip), vehicle: saline with Tween-80); 165 % of control (dose: 8.0 mg/kg/injection, schedule: Q01DX009 (ip), vehicle: saline with Tween-80).
Consider `COC(=O)C(CCCN=C(N)N)NC(=O)OCc1ccccc1` (stereo not given), for which the T/C was 100 % of control (dose: 100.0 mg/kg/injection, schedule: Q04DX003 (ip), vehicle: saline) and 95 % of control (dose: 200.0 mg/kg/injection, schedule: Q04DX003 (ip), vehicle: saline).
Turning to `OC(CC(O)(C(F)(F)F)C(F)(F)F)CC(O)(C(F)(F)F)C(F)(F)F`, the T/C was 114 % of control (dose: 6.25 mg/kg/injection, schedule: Q01DX009 (ip), vehicle: saline with Tween-80); 92 % of control (dose: 6.25 mg/kg/injection, schedule: Q04DX003 (ip), vehicle: saline); 97 % of control (dose: 12.5 mg/kg/injection, schedule: Q01DX009 (ip), vehicle: saline with Tween-80); 97 % of control under setting [1]; 108 % of control (dose: 25.0 mg/kg/injection, schedule: Q01DX009 (ip), vehicle: saline with Tween-80); 105 % of control under setting [2].
In the case of `NC1=NC(=S)C2N=C(N=Nc3ccc(C(=O)NC(CCC(=O)O)C(=O)O)cc3)N=C2N1` (stereo not given), the T/C runs as follows: (dose: 0.09 mg/kg/injection, schedule: Q01DX009 (ip), vehicle: Klucel (hydroxypropylcellulose) (HPC)) 100 % of control; (dose: 0.19 mg/kg/injection, schedule: Q01DX009 (ip), vehicle: Klucel (hydroxypropylcellulose) (HPC)) 107 % of control; (dose: 0.39 mg/kg/injection, schedule: Q01DX009 (ip), vehicle: Klucel (hydroxypropylcellulose) (HPC)) 111 % of control; (dose: 0.78 mg/kg/injection, schedule: Q01DX009 (ip), vehicle: Klucel (hydroxypropylcellulose) (HPC)) 107 % of control; (dose: 1.56 mg/kg/injection, schedule: Q01DX009 (ip), vehicle: Klucel (hydroxypropylcellulose) (HPC)) 89 % of control.
Consider `CC(C)C1CC2CCC3C(C)(C(=O)O)CCCC3(C)C2CC1CO` (stereo not given), for which the T/C was 99 % of control (dose: 50.0 mg/kg/injection, schedule: Q01DX009 (ip), vehicle: saline with Tween-80); 100 % of control (dose: 50.0 mg/kg/injection, schedule: Q04DX003 (ip), vehicle: saline with Tween-80); 96 % of control (dose: 100.0 mg/kg/injection, schedule: Q01DX009 (ip), vehicle: saline with Tween-80); 97 % of control (dose: 100.0 mg/kg/injection, schedule: Q04DX003 (ip), vehicle: saline with Tween-80); 94 % of control (dose: 200.0 mg/kg/injection, schedule: Q01DX009 (ip), vehicle: saline with Tween-80); 90 % of control (dose: 200.0 mg/kg/injection, schedule: Q04DX003 (ip), vehicle: saline with Tween-80).
In the case of `C/C(Cc1ccccc1)=N\[N+](C)(C)C`, the T/C runs as follows: (dose: 75.0 mg/kg/injection, schedule: Q04DX003 (ip), vehicle: saline) 109 % of control; (dose: 150.0 mg/kg/injection, schedule: Q04DX003 (ip), vehicle: saline) 104 % of control.
With `N#CCCN(C(=O)COc1ccc(Cl)cc1Cl)C1CCCCC1`, the T/C (dose: 12.5 mg/kg/injection, schedule: Q01DX009 (ip), vehicle: Klucel (hydroxypropylcellulose) (HPC)) is 99 % of control; the T/C under setting [3] is 103 % of control; the T/C under setting [4] is 98 % of control.
As for `CCCCC1CCCCCCc2[nH]c(/C=C3\N=C(c4ccc[nH]4)C=C3OC)cc21` (stereo not given), the T/C is, setting by setting: (dose: 62.0 micrograms/kg/injection, schedule: Q01DX009 (ip), vehicle: saline with Tween-80) 106 % of control; (dose: 125.0 micrograms/kg/injection, schedule: Q01DX009 (ip), vehicle: saline with Tween-80) 96 % of control; (dose: 250.0 micrograms/kg/injection, schedule: Q01DX009 (ip), vehicle: saline with Tween-80) 92 % of control; (dose: 500.0 micrograms/kg/injection, schedule: Q01DX009 (ip), vehicle: saline with Tween-80) 103 % of control.
`C=CC(=O)NCNC(=O)CCBr`: the T/C runs as follows: under setting [3], 115 % of control; under setting [4], 121 % of control; (dose: 100.0 mg/kg/injection, schedule: Q01DX009 (ip), vehicle: Klucel (hydroxypropylcellulose) (HPC)) 123 % of control.
For the molecule `C=CCc1c(C)ccc(C)c1OC`, the T/C is 102 % of control (dose: 25.0 mg/kg/injection, schedule: Q04DX003 (ip), vehicle: Klucel (hydroxypropylcellulose) (HPC)); 101 % of control (dose: 50.0 mg/kg/injection, schedule: Q04DX003 (ip), vehicle: Klucel (hydroxypropylcellulose) (HPC)); 93 % of control (dose: 100.0 mg/kg/injection, schedule: Q04DX003 (ip), vehicle: Klucel (hydroxypropylcellulose) (HPC)).

For the origin of these results see PubChem BioAssay AID192 (DTP/NCI, 2004).
